Read-outs that look alike come from different tables or passages of the source.
What was measured:
Test in all cases: cells
Type in all cases: cell-based
HT-29 = details: for IC50: read-out: Basal_Viability ATP HT-29 summarized IC50
DLD-1 = details: for IC50: read-out: Basal_Viability ATP DLD-1 summarized IC50
Colo320 = details: for IC50: read-out: Basal_Viability ATP Colo 320 summarized IC50
SW480 = details: for IC50: read-out: Basal_Viability ATP SW480 summarized IC50
SNU-C1 = details: for IC50: read-out: Basal_Viability ATP SNU-C1 summarized IC50
RKO = details: for IC50: read-out: Basal_Viability ATP RKO summarized IC50
HCT116 = details: for IC50: read-out: Basal_Viability ATP HCT116 summarized IC50

CNS(=O)(=O)Cc1ccc2[nH]cc(CCN(C)C)c2c1 [NCGC00095838-04]
Basal_Viability ATP HT-29 IC50/EC50 (HT-29; assay number 28, basal): > 20 µM | Basal_Viability ATP DLD-1 IC50/EC50 (DLD-1; assay number 23, basal): > 20 µM | Basal_Viability ATP Colo 320 IC50/EC50 (Colo320; assay number 27, basal): > 20 µM | Basal_Viability ATP SW480 IC50/EC50 (SW480; assay number 24, basal): > 6.6667 µM | Basal_Viability ATP SNU-C1 IC50/EC50 (SNU-C1; assay number 30, basal): > 20 µM | Basal_Viability ATP RKO IC50/EC50 (RKO; assay number 29, basal): > 20 µM | Basal_Viability ATP HCT116 IC50/EC50 (HCT116; assay number 25, basal): > 20 µM

O=C(O)c1ccccc1S [NCGC00018107-05]
IC50 (HT-29; assay number 28, basal): > 20 µM | IC50 (DLD-1; assay number 23, basal): > 20 µM | IC50 (Colo320; assay number 27, basal): > 20 µM | IC50 (SW480; assay number 24, basal): > 20 µM | IC50 (SNU-C1; assay number 30, basal): > 20 µM | IC50 (RKO; assay number 29, basal): > 20 µM | IC50 (HCT116; assay number 25, basal): > 20 µM

CC(C)=CC1C(C(=O)OCN2C(=O)C3=C(CCCC3)C2=O)C1(C)C (centres unmarked) [NCGC00168352-02]
IC50/EC50, Basal_Viability ATP HT-29 (assay number 28) (HT-29; basal): > 20 µM | IC50/EC50, Basal_Viability ATP DLD-1 (assay number 23) (DLD-1; basal): > 20 µM | IC50/EC50, Basal_Viability ATP Colo 320 (assay number 27) (Colo320; basal): > 20 µM | IC50/EC50, Basal_Viability ATP SW480 (assay number 24) (SW480; basal): > 20 µM | IC50/EC50, Basal_Viability ATP SNU-C1 (assay number 30) (SNU-C1; basal): > 20 µM | IC50/EC50, Basal_Viability ATP RKO (assay number 29) (RKO; basal): > 20 µM | IC50/EC50, Basal_Viability ATP HCT116 (assay number 25) (HCT116; basal): > 20 µM

CCCCCCOc1ccccc1C(N)=O [NCGC00095049-04]
IC50/EC50, Basal_Viability ATP HT-29 (assay number 28) (HT-29; basal): > 20 µM | IC50/EC50, Basal_Viability ATP DLD-1 (assay number 23) (DLD-1; basal): 8.6657 µM | IC50/EC50, Basal_Viability ATP Colo 320 (assay number 27) (Colo320; basal): > 20 µM | IC50/EC50, Basal_Viability ATP SW480 (assay number 24) (SW480; basal): > 20 µM | IC50/EC50, Basal_Viability ATP SNU-C1 (assay number 30) (SNU-C1; basal): 9.3567 µM | IC50/EC50, Basal_Viability ATP RKO (assay number 29) (RKO; basal): > 6.6667 µM | IC50/EC50, Basal_Viability ATP HCT116 (assay number 25) (HCT116; basal): > 6.6667 µM

Cc1c(NC(=O)c2cccnc2)c(=O)n(-c2ccccc2)n1C [NCGC00016605-08]
IC50/EC50, Basal_Viability ATP HT-29 (assay number 28) (HT-29; basal): > 20 µM | IC50/EC50, Basal_Viability ATP DLD-1 (assay number 23) (DLD-1; basal): > 20 µM | IC50/EC50, Basal_Viability ATP Colo 320 (assay number 27) (Colo320; basal): > 20 µM | IC50/EC50, Basal_Viability ATP SW480 (assay number 24) (SW480; basal): > 20 µM | IC50/EC50, Basal_Viability ATP SNU-C1 (assay number 30) (SNU-C1; basal): > 20 µM | IC50/EC50, Basal_Viability ATP RKO (assay number 29) (RKO; basal): > 20 µM | IC50/EC50, Basal_Viability ATP HCT116 (assay number 25) (HCT116; basal): > 20 µM

Cc1onc(-c2ccccc2)c1-c1ccc(S(N)(=O)=O)cc1 [NCGC00095129-06]
Basal_Viability ATP HT-29 IC50/EC50 (HT-29): > 20 µM | Basal_Viability ATP DLD-1 IC50/EC50 (DLD-1): > 20 µM | Basal_Viability ATP Colo 320 IC50/EC50 (Colo320): > 20 µM | Basal_Viability ATP SW480 IC50/EC50 (SW480): > 20 µM | Basal_Viability ATP SNU-C1 IC50/EC50 (SNU-C1): > 20 µM | Basal_Viability ATP RKO IC50/EC50 (RKO): > 20 µM | Basal_Viability ATP HCT116 IC50/EC50 (HCT116): > 20 µM

O=C(O)c1ccccc1OP(=O)(O)O [NCGC00016668-06]
IC50 (HT-29; assay number 28, basal): > 20 µM | IC50 (DLD-1; assay number 23, basal): > 20 µM | IC50 (Colo320; assay number 27, basal): > 20 µM | IC50 (SW480; assay number 24, basal): > 20 µM | IC50 (SNU-C1; assay number 30, basal): > 20 µM | IC50 (RKO; assay number 29, basal): > 20 µM | IC50 (HCT116; assay number 25, basal): > 20 µM

Oc1c(Cl)cc(Cl)c(Cl)c1Cc1c(O)c(Cl)cc(Cl)c1Cl [NCGC00091195-08]
IC50 (HT-29): 0.46 µM | IC50 (DLD-1): 0.0157 µM | IC50 (Colo320): 0.0572 µM | IC50 (SW480): 0.003 µM | IC50 (SNU-C1): 0.032 µM | IC50 (RKO): 0.108 µM | IC50 (HCT116): 0.0312 µM

CC(C)(C)CC(C)(C)c1cc(Cc2cc(C(C)(C)CC(C)(C)C)cc(-n3nc4ccccc4n3)c2O)c(O)c(-n2nc3ccccc3n2)c1 [NCGC00167544-02]
Basal_Viability ATP HT-29 IC50/EC50 (HT-29; assay number 28, basal): > 20 µM | Basal_Viability ATP DLD-1 IC50/EC50 (DLD-1; assay number 23, basal): > 20 µM | Basal_Viability ATP Colo 320 IC50/EC50 (Colo320; assay number 27, basal): > 20 µM | Basal_Viability ATP SW480 IC50/EC50 (SW480; assay number 24, basal): > 20 µM | Basal_Viability ATP SNU-C1 IC50/EC50 (SNU-C1; assay number 30, basal): > 20 µM | Basal_Viability ATP RKO IC50/EC50 (RKO; assay number 29, basal): > 20 µM | Basal_Viability ATP HCT116 IC50/EC50 (HCT116; assay number 25, basal): > 20 µM

Cc1cccc(Cc2cnc[nH]2)c1C.Cl [NCGC00182057-03]
IC50/EC50, Basal_Viability ATP HT-29 (assay number 28) (HT-29; basal): > 20 µM | IC50/EC50, Basal_Viability ATP DLD-1 (assay number 23) (DLD-1; basal): > 20 µM | IC50/EC50, Basal_Viability ATP Colo 320 (assay number 27) (Colo320; basal): > 20 µM | IC50/EC50, Basal_Viability ATP SW480 (assay number 24) (SW480; basal): > 20 µM | IC50/EC50, Basal_Viability ATP SNU-C1 (assay number 30) (SNU-C1; basal): > 20 µM | IC50/EC50, Basal_Viability ATP RKO (assay number 29) (RKO; basal): > 20 µM | IC50/EC50, Basal_Viability ATP HCT116 (assay number 25) (HCT116; basal): > 20 µM

CCOC(=O)Oc1ccc(CCNC(=O)[C@H](CCSC)NC(C)=O)cc1OC(=O)OCC [NCGC00249931-01]
Basal_Viability ATP HT-29 IC50/EC50 (HT-29; assay number 28): > 20 µM | Basal_Viability ATP DLD-1 IC50/EC50 (DLD-1; assay number 23): > 20 µM | Basal_Viability ATP Colo 320 IC50/EC50 (Colo320; assay number 27): > 20 µM | Basal_Viability ATP SW480 IC50/EC50 (SW480; assay number 24): > 20 µM | Basal_Viability ATP SNU-C1 IC50/EC50 (SNU-C1; assay number 30): > 20 µM | Basal_Viability ATP RKO IC50/EC50 (RKO; assay number 29): > 20 µM | Basal_Viability ATP HCT116 IC50/EC50 (HCT116; assay number 25, basal): > 20 µM
